Measurements from paper PMC7604909, “Structure of a GH51 α-L-arabinofuranosidase from Meripilus giganteus: conserved substrate recognition from bacteria to fungi” (Acta Crystallographica. Section D, Structural Biology, 2020).
Counter-ions that a name gives are not always drawn.

Assays:
MgGH51 [1] = biological target: T1, MgGH51 (Meripilus giganteus, UniProt Z9H0M4BQG1); experiment: hydrolysis kinetics, released L-arabinose quantified on CarboPac PA20; type: biochemical; conditions: 40 °C, 50 mM sodium acetate pH 4, 5 ng/ml enzyme, 0.02-2.5 mM substrate; kind of constant not told in main text
T1 construct: mature secreted enzyme, expressed in Aspergillus oryzae, N-glycosylated (Asn145, Asn245, Asn421, Asn487), untagged
T1 sequence (Z9H0M4BQG1 1-627): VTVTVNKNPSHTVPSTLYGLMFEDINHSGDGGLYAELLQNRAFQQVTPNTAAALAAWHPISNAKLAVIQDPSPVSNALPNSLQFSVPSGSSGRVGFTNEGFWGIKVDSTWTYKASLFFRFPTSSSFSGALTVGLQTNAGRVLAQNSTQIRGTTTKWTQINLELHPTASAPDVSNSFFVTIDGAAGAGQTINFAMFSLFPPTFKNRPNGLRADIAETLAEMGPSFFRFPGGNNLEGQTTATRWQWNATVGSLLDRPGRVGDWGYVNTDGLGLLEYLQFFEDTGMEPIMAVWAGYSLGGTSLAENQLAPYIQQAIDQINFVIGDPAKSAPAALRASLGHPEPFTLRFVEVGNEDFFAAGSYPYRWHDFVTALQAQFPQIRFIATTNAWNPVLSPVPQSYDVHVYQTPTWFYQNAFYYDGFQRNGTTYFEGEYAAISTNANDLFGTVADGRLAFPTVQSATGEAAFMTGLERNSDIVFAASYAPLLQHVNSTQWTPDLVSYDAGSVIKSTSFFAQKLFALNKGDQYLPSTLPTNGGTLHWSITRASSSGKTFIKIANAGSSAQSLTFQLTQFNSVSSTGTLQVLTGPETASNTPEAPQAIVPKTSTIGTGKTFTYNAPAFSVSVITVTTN

MgGH51 [2] = biological target: T1, MgGH51; experiment: X-ray crystal structure, […] Å; type: binding; conditions: type 1 crystal, about one equivalent of inhibitor, 1 h at room temperature; covalent, bound to nucleophile Glu429 (ring-opened aziridine)
MgGH51 [3] = biological target: T1, MgGH51; experiment: X-ray crystal structure, […] Å; type: binding; conditions: type 1 crystal, about one equivalent of inhibitor, 1 h at room temperature; covalent, bound to nucleophile Glu429 (ring-opened cyclic sulfate); PDB code from Tables 3 and 4, the supplementary list pri

Row | SMILES | hydrolysis kinetics, released L-arabinose quantified on CarboPac PA20 (MgGH51 [1]) | also measured
1 | OC[C@@H]1O[C@@H](OC[C@@H]2O[C@@H](OC[C@@H]3OC(O)[C@H](O)[C@H]3O)[C@H](O)[C@H]2O)[C@H](O)[C@H]1O (stereo partly drawn) [A3, α(1,5)-linked arabinotriose] | Measurement of the hydrolytic kinetics of MgGH51 towards the AX2 and A3 oligosaccharides | –
2 | OC[C@@H]1O[C@@H](O[C@@H]2[C@@H](O)[C@H](O[C@@H]3COC(O)[C@H](O)[C@H]3O)OC[C@H]2O)[C@H](O)[C@H]1O (stereo partly drawn) [AX2, 3^2-α-L-Arabinofuranosyl-xylobiose] | Measurement of the hydrolytic kinetics of MgGH51 towards the AX2 and A3 oligosaccharides | –
3 | OC[C@H]1[C@H](O)[C@@H](O)[C@@H]2N[C@H]12 [α-L-AraAZI, α-L-arabinocyclophellitol aziridine] | – | X-ray crystal structure, 1.54 Å (MgGH51 [2]): α-L-AraCS or α-L-AraAZI gave clear density for these two ligands bound to Glu429
4 | O=S1(=O)O[C@@H]2[C@@H](CO)[C@H](O)[C@@H](O)[C@@H]2O1 [α-L-AraCS, α-L-arabinocyclophellitol cyclic sulfate] | – | X-ray crystal structure, 1.71 Å (MgGH51 [3]): α-L-AraCS or α-L-AraAZI gave clear density for these two ligands bound to Glu429
